The values below come from the Kinase Knowledgebase extract (Sharma et al. 2016).

This assay addresses PIK3CA (human) (UniProt P42336). The assay can be described thus: Inhibition of PIK3CA Kinase Activity.

PIK3CA (human), sequence (P42336 whole entry, looked up): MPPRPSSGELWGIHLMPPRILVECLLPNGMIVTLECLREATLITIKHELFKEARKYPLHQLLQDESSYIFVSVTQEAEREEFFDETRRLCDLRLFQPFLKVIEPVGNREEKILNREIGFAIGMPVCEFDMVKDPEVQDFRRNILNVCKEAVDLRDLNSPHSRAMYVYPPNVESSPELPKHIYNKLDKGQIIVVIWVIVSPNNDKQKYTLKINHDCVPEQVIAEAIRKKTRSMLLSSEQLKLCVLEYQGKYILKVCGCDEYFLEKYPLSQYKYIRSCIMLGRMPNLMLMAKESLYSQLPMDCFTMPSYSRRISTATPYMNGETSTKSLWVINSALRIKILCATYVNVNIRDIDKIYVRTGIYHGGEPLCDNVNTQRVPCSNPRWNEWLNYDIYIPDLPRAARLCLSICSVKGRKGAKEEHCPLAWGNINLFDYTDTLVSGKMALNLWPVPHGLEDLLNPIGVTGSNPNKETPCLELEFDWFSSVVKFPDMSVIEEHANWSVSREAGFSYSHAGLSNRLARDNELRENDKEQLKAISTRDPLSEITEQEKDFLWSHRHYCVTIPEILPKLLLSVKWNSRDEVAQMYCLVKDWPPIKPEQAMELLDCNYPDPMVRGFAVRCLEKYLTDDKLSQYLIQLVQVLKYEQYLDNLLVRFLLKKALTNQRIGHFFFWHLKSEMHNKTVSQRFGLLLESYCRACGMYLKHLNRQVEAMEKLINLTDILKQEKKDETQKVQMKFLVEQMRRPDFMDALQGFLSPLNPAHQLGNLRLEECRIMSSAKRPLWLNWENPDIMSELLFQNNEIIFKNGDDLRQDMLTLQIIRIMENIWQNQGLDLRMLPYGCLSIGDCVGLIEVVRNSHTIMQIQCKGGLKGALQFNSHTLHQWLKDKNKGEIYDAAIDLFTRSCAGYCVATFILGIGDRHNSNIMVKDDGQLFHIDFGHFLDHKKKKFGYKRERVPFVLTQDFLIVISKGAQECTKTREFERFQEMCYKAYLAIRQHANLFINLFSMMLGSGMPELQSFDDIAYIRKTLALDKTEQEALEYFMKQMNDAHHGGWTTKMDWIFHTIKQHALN

`CC1(C)CCc2ncnc(N3CCOc4ccc(-c5cnc(N)c(S(=O)(=O)NCC(O)CN)c5)cc4C3)c2C1` (stereo not drawn): the half-inhibitory concentration (IC50) – broadly, the concentration that gives 50% inhibition – is ≤ 10 nM.
For `COc1ccc2c(N3CCOc4ccc(-c5cnc6sc(N)nc6c5)cc4C3)nc(CN(C)C)nc2c1` the value was ≤ 10 nM; for `CCNc1nc2ncc(-c3ccc4c(c3)CN(c3nc(C)nc5cc(OC)ccc35)CCO4)cc2[nH]1`, ≤ 10 nM; for `Cc1nc(N)nc(N2CCOc3ccc(-c4cnc5sc(N)nc5c4)cc3C2)c1Cc1ccc(F)cc1`, ≤ 10 nM.
For `CN(C)Cc1nc2c(c(N3CCOc4ccc(-c5ccc(Cl)c(C(N)=O)c5)cc4C3)n1)CC(C)(C)CC2` the value was 250 to 1000 nM; for `Cc1nc(CN(C)C)nc(N2CCOc3ccc(-c4cnc5sc(N)nc5c4)cc3C2)c1CC(C)C`, 50 to 250 nM.
For `CC(O)c1nc2cc(-c3ccc4c(c3)CN(c3ncnc5c3CC(C)(C)CC5)CCO4)cnc2[nH]1` (stereo not drawn) the value was 50 to 250 nM; for `Cc1nc2ncc(-c3ccc4c(c3)CN(c3nc(CN5CCOCC5)nc5c3CC(C)(C)CC5)CCO4)cc2[nH]1`, 10 to 50 nM; for `CCNc1nc2ccc(-c3ccc4c(c3)CN(c3nc(C)nc5cc(F)ccc35)CCO4)cc2[nH]1`, ≤ 10 nM.
In the case of `Cc1ncnc(N2CCOc3ccc(-c4ccc(N)nn4)cc3C2)c1Cc1ccc(F)cc1`, the IC50 is 250 to 1000 nM.
`CCSc1nc2c(c(N3CCOc4ccc(-c5ccc6nc(C)[nH]c6c5)cc4C3)n1)CCC2` had an IC50 of 250 to 1000 nM.
For `CC1CCc2c(ncnc2N2CCOc3ccc(-c4cnc5nc(N)[nH]c5c4)cc3C2)C1` (stereo not drawn) the value was ≤ 10 nM.
Under `Cc1nc2cc(-c3ccc4c(c3)CN(c3nc(NCCN(C)C)nc(C)c3Cc3ccc(F)cc3)CCO4)ccc2[nH]1` stands 10 to 50 nM; under `Cc1ccc(Cc2c(C)ncnc2N2CCOc3ccc(-c4ccc5nc(C)[nH]c5c4)cc3C2)cc1`, 50 to 250 nM.
Under `CCN(CC)Cc1nc2c(c(N3CCOc4ccc(-c5cnc6nc(C)[nH]c6c5)cc4C3)n1)CC(C)(C)CC2` stands 10 to 50 nM; under `CC1(C)CCc2ncnc(N3CCOc4ccc(-c5cnc(N)c(S(=O)(=O)NCCCN)c5)cc4C3)c2C1`, ≤ 10 nM; under `CCNc1nc2ccc(-c3ccc4c(c3)CN(c3nc(C)nc(Nc5ccccc5)c3C)CCO4)cc2[nH]1`, 50 to 250 nM.
As to `Cc1c(NC2CCN(C)CC2)ncnc1N1CCOc2ccc(-c3cnc4nc(C5CC5)[nH]c4c3)cc2C1`, the IC50 was 10 to 50 nM.
Under `Cc1nc2ccc(-c3ccc4c(c3)CN(c3ncnc(C)c3Cc3cccc(C(F)(F)F)c3)CCO4)cc2[nH]1` stands 50 to 250 nM; under `Cc1nc2ncc(-c3ccc4c(c3)CN(c3nc(CNC5CCCC5)nc5c3CC(C)(C)CC5)CCO4)cc2[nH]1`, 10 to 50 nM.
As to `CCNc1nc2ccc(-c3ccc4c(c3)CN(c3ccncn3)CCO4)cc2[nH]1`, the IC50 was 250 to 1000 nM.
With `COc1ccc(-c2ccc3c(c2)CN(c2nc(CN(C)C)nc4c2CC(C)(C)CC4)CCO3)cn1`, the IC50 is 50 to 250 nM.
Consider `Nc1nc2ncc(-c3ccc4c(c3)CN(c3ncnc5ccc(Br)cc35)CCO4)cc2[nH]1`, for which the IC50 was ≤ 10 nM.
For `Cc1nc2cc(-c3ccc4c(c3)CN(c3nc(CN5CCCC5)nc5c3CC(C)(C)CC5)CCO4)ccc2[nH]1`, the IC50 is ≤ 10 nM.
As to `CCc1ncnc(N2CCOc3ccc(-c4ccc5nc(C)[nH]c5c4)cc3C2)c1C`, the IC50 lay within 50 to 250 nM.
`COc1ccc2c(N3CCOc4ccc(-c5cnc6nc(C)[nH]c6c5)cc4C3)nc(CN(C)C)nc2c1`: the IC50 is ≤ 10 nM.
Under `CC1(C)CCc2ncnc(N3CCOc4ccc(-c5cncc(S(N)(=O)=O)c5)cc4C3)c2C1` stands 50 to 250 nM.
Under `COC(=O)Nc1nc2ncc(-c3ccc4c(c3)CN(c3ncnc5c3CC(C)(C)C=C5)CCO4)cc2[nH]1` stands ≤ 10 nM; under `CCN(Cc1nc2c(c(N3CCOc4ccc(-c5cnc6nc(C)[nH]c6c5)cc4C3)n1)CC(C)(C)CC2)C(C)C`, 10 to 50 nM.
As for `CCNc1nc2ncc(-c3ccc4c(c3)CN(c3ncnc5c3CC(C)(C)CC5)CCO4)cc2[nH]1`, the IC50 is ≤ 10 nM.
For `c1ccc2c(N3CCOc4ccc(-c5ccc6nc(C7CC7)[nH]c6c5)cc4C3)ccnc2c1`, the concentration for half-maximal inhibition (IC50) lay within 10 to 50 nM.
`COCC1CCc2c(ncnc2N2CCOc3ccc(-c4cnc5nc(C)[nH]c5c4)cc3C2)C1` (stereo not drawn) registered a concentration for half-maximal inhibition (IC50) of 10 to 50 nM.
Consider `Nc1nc2ccc(-c3ccc4c(c3)CN(c3ccnc5ccccc35)CCO4)cc2[nH]1`, for which the IC50 is 10 to 50 nM.
Compound `Cc1nc2ncc(-c3ccc4c(c3)CN(c3ncnc(N5CCOCC5)c3C)CCO4)cc2[nH]1` registered an IC50 of 50 to 250 nM.
Under `Cc1nc2ncc(-c3ccc4c(c3)CN(c3nc(CNCC(F)F)nc5c3CC(C)(C)CC5)CCO4)cc2[nH]1` stands 10 to 50 nM; under `COc1ccc2c(N3CCOc4ccc(-c5cnc(N)s5)cc4C3)nc(C)nc2c1`, ≤ 10 nM.
With `COc1c(OCCN(C)C)ccc2c(N3CCOc4ccc(-c5ccc6nc(C)[nH]c6c5)cc4C3)ncnc12`, the half-maximal inhibitory concentration (IC50) was 250 to 1000 nM.
Compound `CC[C@H](C)NCc1nc2c(c(N3CCOc4ccc(-c5cnc6nc(C)[nH]c6c5)cc4C3)n1)CC(C)(C)CC2` came in with a 50% inhibitory concentration (IC50) of 10 to 50 nM.
For `COc1ccc(-c2ccc3c(c2)CN(c2nc(CN(C)C)nc4c2CC(C)(C)CC4)CCO3)cc1OC(F)F` the value was 10 to 50 nM.
As to `Cc1nc(CN(C)C)nc(N2CCOc3ccc(-c4cnc5sc(N)nc5c4)cc3C2)c1C(C)C`, the half-maximal inhibitory concentration (IC50) was ≤ 10 nM.
Consider `CCc1nc2cc(-c3ccc4c(c3)CN(c3ncnc5c3CC(C)(C)CC5)CCO4)cnc2[nH]1`, for which the concentration for half-maximal inhibition (IC50) was in the range of 10 to 50 nM.
With `CNC(=O)c1ccc(-c2ccc3c(c2)CN(c2ncnc(C)c2Cc2ccc(F)cc2)CCO3)cc1`, the IC50 fell in the range of 10 to 50 nM.
For `c1ccc2c(N3CCOc4ccc(-c5ccc6scnc6c5)cc4C3)ccnc2c1` the value was 250 to 1000 nM.
Take `Cc1nc2ncc(-c3ccc4c(c3)CN(c3ncnc(NC(C)C)c3C)CCO4)cc2[nH]1`: the IC50 was in the range of 10 to 50 nM.
Under `CC1(C)CCc2ncnc(N3CCOc4ccc(-c5cncc(NS(C)(=O)=O)c5)cc4C3)c2C1` stands 50 to 250 nM; under `Cc1nc(N)sc1-c1ccc2c(c1)CN(c1ncnc3c1CCC(C)(C)C3)CCO2`, 50 to 250 nM.
For `CCNc1nc2ccc(-c3ccc4c(c3)CN(c3cc(Nc5ccc(OC)cc5)ncn3)CCO4)cc2[nH]1`, the concentration for half-maximal inhibition (IC50) was in the range of 250 to 1000 nM.
Under `CC1(C)CCc2ncnc(N3CCOc4ccc(-c5ccc6nc[nH]c6c5)cc4C3)c2C1` stands 50 to 250 nM; under `CC1(C)CCc2ncnc(N3CCOc4ccc(-c5cnc(N)c(S(=O)(=O)N6CC(N)C6)c5)cc4C3)c2C1`, 10 to 50 nM; under `CCNc1nc2ccc(-c3ccc4c(c3)CN(c3cc(C)nc5cc(F)ccc35)CCO4)cc2[nH]1`, ≤ 10 nM.
For `Cc1nc2ccc(-c3ccc4c(c3)CN(c3ncnc(C)c3C)CCO4)cc2[nH]1` the value was 50 to 250 nM; for `CC1(C)CCc2ncnc(N3CCOc4ccc(-c5cnc(N)c(S(=O)(=O)N6CCCC(O)C6)c5)cc4C3)c2C1` (stereo not drawn), 10 to 50 nM.
Compound `CN(C)S(=O)(=O)c1cncc(-c2ccc3c(c2)CN(c2ncnc4c2CC(C)(C)CC4)CCO3)c1` returned an IC50 of 50 to 250 nM.
For `CCNc1nc(C)nc(N2CCOc3ccc(-c4cnc5nc(C)[nH]c5c4)cc3C2)c1C` the value was 10 to 50 nM; for `Cc1c(Nc2ccccc2)ncnc1N1CCOc2ccc(-c3cnc4nc(N)[nH]c4c3)cc2C1`, ≤ 10 nM.
Consider `Cc1nc2c(c(N3CCOc4ccc(-c5cnc(N)c(S(=O)(=O)NCC6CCN(C)CC6)c5)cc4C3)n1)CC(C)(C)CC2`, for which the IC50 is 50 to 250 nM.
Under `Cc1ncnc(N2CCOc3ccc(-c4ccc5[nH]c(NCCF)nc5c4)cc3C2)c1Cc1ccc(F)cc1` stands 10 to 50 nM.
On to `COc1ccc2c(N3CCOc4ccc(-c5cnc6[nH]c(C)nc6c5)cc4C3)nc(C)nc2c1`, for which the IC50 is ≤ 10 nM.
Under `COc1ccc2c(N3CCOc4ccc(-c5cnc(N)c(S(=O)(=O)C[C@@H](C)CO)c5)cc4C3)ncnc2c1` stands ≤ 10 nM.
With `CC1(C)CCc2nc(CO)nc(N3CCOc4ccc(-c5cnc6sc(N)nc6c5)cc4C3)c2C1`, the IC50 is ≤ 10 nM.
Under `CCNc1ncnc(N2CCOc3ccc(-c4cnc5nc(C)[nH]c5c4)cc3C2)c1C` stands 10 to 50 nM; under `Cc1ncnc(N2CCOc3ccc(-c4cnc(N)nc4)cc3C2)c1Cc1ccc(F)cc1`, 50 to 250 nM.
For the compound `CC1(C)CCc2ncnc(N3CCOc4ccc(-c5cnc(N)c(S(=O)(=O)NC6CCNCC6)c5)cc4C3)c2C1`, the IC50 fell in the range of 50 to 250 nM.
In the case of `CC1(C)CCc2ncnc(N3CCOc4ccc(-c5cnc(N)c(S(=O)(=O)N6CC(O)(CO)C6)c5)cc4C3)c2C1`, the IC50 fell in the range of 10 to 50 nM.
In turn, `CC1(C)CCc2ncnc(N3CCOc4ccc(-c5cnc(N)c(S(=O)(=O)N6CC[C@@H](N)C6)c5)cc4C3)c2C1` returned an IC50 of 10 to 50 nM.
On to `Cc1nc2ccc(-c3ccc4c(c3)CN(c3ncnc(C)c3Cc3ccc(Cl)cc3)CCO4)cc2[nH]1`, for which the IC50 is 10 to 50 nM.
For `CN(C)Cc1nc2c(c(N3CCOc4ccc(-c5cnc6sc(N)nc6c5)cc4C3)n1)CC(C)(C)CC2` the value was ≤ 10 nM; for `Cc1nc2ccc(-c3ccc4c(c3)CN(c3ncnc5c3CCC(C)(C)C5)CCO4)cc2[nH]1`, 50 to 250 nM.
For `CCNc1nc2ccc(-c3ccc4c(c3)CN(c3cc(C)nc5ccccc35)CCO4)cc2[nH]1` the value was ≤ 10 nM.
For `Cc1nc(CN(C)C)nc(N2CCOc3ccc(-c4cnc5sc(N)nc5c4)cc3C2)c1CC1CC1` the value was ≤ 10 nM.
Regarding `c1ccc2c(N3CCOc4ccc(-c5ccc6nc[nH]c6c5)cc4C3)ccnc2c1`, the IC50 is 10 to 50 nM.
For `COc1ccc2c(N3CCOc4ccc(-c5ccc(-c6c[nH]cn6)cc5)cc4C3)nc(C)nc2c1` the value was 50 to 250 nM.
`Cc1nc2cc(-c3ccc4c(c3)CN(c3nc(C(C)N5CCCC5)nc5c3CC(C)(C)CC5)CCO4)cnc2[nH]1` (stereo not drawn) showed a 50% inhibitory concentration (IC50) of 50 to 250 nM.
Compound `CC1=CC(C)(C)Cc2c1ncnc2N1CCOc2ccc(-c3cnc(N)c(S(=O)(=O)N4CC[C@@H](N)C4)c3)cc2C1` registered a half-inhibitory concentration (IC50) of 50 to 250 nM.
On to `CCOc1ncc(-c2ccc3c(c2)CN(c2ncnc4c2CC(C)(C)CC4)CCO3)cc1NS(C)(=O)=O`, for which the IC50 fell in the range of 50 to 250 nM.
For `Cc1nc2ncc(-c3ccc4c(c3)CN(c3nc(-c5ccccn5)nc5c3CC(C)(C)CC5)CCO4)cc2[nH]1`, the half-inhibitory concentration (IC50) was 50 to 250 nM.
In turn, `CC1(C)CCc2ncnc(N3CCOc4ccc(-c5cnc(N)c(S(=O)(=O)NCC(N)=O)c5)cc4C3)c2C1` came in with a concentration for half-maximal inhibition (IC50) of 10 to 50 nM.
Under `CC1(C)CCc2ncnc(N3CCOc4ccc(-c5cnc(N)c(S(C)(=O)=O)c5)cc4C3)c2C1` stands 10 to 50 nM.
